Laboratory results: US6534632B2, “Sialidase localized in plasma membrane DNA coding for the same” (priority 1997, dated 2003)
Where two headings read alike, the source gives them in different places.

Columns and labels:
Assay type in all cases: biochemical
[1] = target: T1, bovine membrane-bound sialidase (Bos taurus, UniProt O97859); test: Inhibition, activation and stabilization of purified bovine membrane-bound sialidase; conditions: for Inhibition (%): 100 minus residual activity (%); for Inhibition of the sialidase: in words
T1 construct: the sialidase activity was purified by more than 100,000 times from the bovine brain particulate fraction; from tissue; host or cells: bovine brain (particulate/membrane fraction, detergent-solubilized, 10-step chromatographic purification)
T1 sequence (O97859 1-428): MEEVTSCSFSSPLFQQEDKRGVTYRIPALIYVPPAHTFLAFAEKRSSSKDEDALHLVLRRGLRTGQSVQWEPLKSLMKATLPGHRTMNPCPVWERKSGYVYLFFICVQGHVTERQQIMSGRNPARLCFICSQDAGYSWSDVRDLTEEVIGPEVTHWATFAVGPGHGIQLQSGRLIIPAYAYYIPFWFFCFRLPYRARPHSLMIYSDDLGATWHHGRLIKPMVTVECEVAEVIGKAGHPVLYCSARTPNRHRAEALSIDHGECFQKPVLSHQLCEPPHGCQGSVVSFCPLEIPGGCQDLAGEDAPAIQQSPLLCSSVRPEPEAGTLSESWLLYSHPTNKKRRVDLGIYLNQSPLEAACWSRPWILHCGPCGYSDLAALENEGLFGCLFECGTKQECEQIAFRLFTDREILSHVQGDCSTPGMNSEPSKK
Method: (§1) A reaction system (0.2 ml) contained 50-100 nmol of sialic acid-bound saccharide substrate, 0.2 mg of bovine serum albumin, […] of sodium acetate buffer (pH 4.6), 0.2 mg of Triton X-100, and an enzyme fraction, and a substrate consisting mainly of bovine brain mixed gangliosides (Sigma, Type II) was used.
(§2) A reaction mixture having the aforementioned composition was incubated at 37° C. for 15-60 minutes, and the reaction was stopped by quick freezing. The released sialic acid was quantitated by the thiobarbituric acid method of Warren (Warren L., J. Biol. Chem. 234, 1971-1975, 1959) at 549 nm and 532 nm. In Steps 1, 2, and 7 explained below, the quantitation was performed by the same method after the reaction product was passed through an AGX-2 ion exchange mini column. The amount of the sialic acid (nmol) released per hour was defined as 1 unit. When a synthetic substrate, 4-methylumbelliferyl N-acetylneuraminic acid (4MU-NeuAc) was used as the sialic acid-bound saccharide substrate, Triton X-100 was excluded from the reaction system, and released 4-methylumbelliferone was quantitated by a fluorospectrophotometer.
The numerical values each represent 100 minus (residual activity (%) in the presence of inhibitor).

[2] = target: T1, bovine membrane-bound sialidase; test: as above; conditions: in words
[3] = target: T1, bovine membrane-bound sialidase; test: Sialidase activity of purified bovine membrane-bound sialidase for various substrates (substrate specificity); conditions: for Hydrolysis activity (%): relative activity, activity for GD3-ganglioside defined as 100, purified enzyme
Method: as §1, §2
The results of investigations about the activity of the enzyme of the present invention for various substrates are shown in Table 2. The numerical values represent relative activity when the activity for the GD3-ganglioside is defined to be 100.

Substrate specificity: whether the sialidase acts on the substrate [3] | Hydrolysis activity (%) [3] | Compound | further results
does not substantially act on | 2% | Orosomucoid: glycoprotein substrate | 
weakly acts on | 25% | CC(=O)N[C@H]1[C@H]([C@H](O)[C@H](O)CO)OC(Oc2ccc3c(C)cc(=O)oc3c2)(C(=O)O)C[C@@H]1O (some centres unmarked) [4-MUNeuAc, 4-methylumbelliferyl N-acetylneuraminic acid] | 
did not act on | 11% | CC(=O)N[C@H]1[C@H]([C@H](O)[C@H](O)CO)O[C@@](O[C@H]2[C@@H](O)[C@@H](CO)O[C@@H](O[C@H]3[C@H](O)[C@@H](O)C(O)O[C@@H]3CO)[C@@H]2O)(C(=O)O)C[C@@H]1O (stereo partly drawn) [α2-3 syalyllactose, α2-3 sialyllactose] | Substrate specificity: whether the sialidase acts on the substrate ([3]; listed as α2-3 sialyllactose): weakly acts on
does not substantially act on | 3% | GM2-ganglioside | 

The next lines start with the compound.

Compound | Substrate specificity: whether the sialidase acts on the substrate [3] | Hydrolysis activity (%) [3] | further results
[Cl][Cu][Cl] [CuCl2] |  |  | Inhibition (%) ([1]; inhibitor 1 mM): 95%
Triton X-100 |  |  | Sialidase activity in the presence of surface active agent ([1]; 0.1 to 0.2% of Triton X-100): highly active
O[C@H](CS)[C@H](O)CS (racemic) [dithiothreitol] |  |  | Stabilization of the sialidase [2]: stabilized
[Cu+2] [Cu^2+] |  |  | Inhibition of the sialidase [1]: strongly inhibited
GM3-ganglioside | acts on | 62% | 
OCC(O)CO [glycerol] |  |  | Stabilization of the sialidase [2]: stabilized
GD3-ganglioside | acts on | 100% | 
CC(=O)N[C@H]1[C@H]([C@H](O)[C@H](O)CO)OC(C(=O)O)=C[C@@H]1O [2-deoxy-2,3-dehydro-N-acetylneuraminic acid] |  |  | Inhibition of the sialidase [1]: weakly inhibited; Inhibition (%) ([1]; inhibitor 0.2 mM): 45%; Stabilization of the sialidase [2]: stabilized
O=C(O)c1cc[c]([Hg][OH])cc1 [4-Hydroxy mercury benzoate] |  |  | Inhibition of the sialidase [1]: strongly inhibited; Inhibition (%) ([1]; inhibitor 50 μM): 92%
GD1a-ganglioside | acts on | 56% | 
GM1-ganglioside | does not substantially act on | 1% | 
Fetuin: glycoprotein substrate | does not substantially act on | 2% | 
